This note sets out measurements from patent US20260317324A1, “BIFUNCTIONAL COMPOUNDS FOR DEGRADING BRAF VIA UBIQUITIN PROTEOSOME PATHWAY” (Nurix Therapeutics, Inc., priority 2023, published 2026).

Format in all cases: cell-based
One assay concerns the target T1, BRAF V600E (Homo sapiens, UniProt P15056, V600E).
T1 construct: endogenous C-terminal HiBiT fusion tag on BRAF V600E allele; endogenous in cells; host or cells: A375 clone 1F10 (CRISPR-Cas9 knock-in of the HiBiT tag; parental A375 from ATCC)
Kind of assay: BRAF HiBiT degradation assay, C-terminal HiBiT-tagged BRAF V600E A375 cells (clone 1F10), Nano-Glo HiBiT Lytic assay. Conditions: for Dmax: A-375. In short, it runs like this:
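Degradation is measured as loss of HiBiT signal from BRAF V600E tagged at its native locus in A375 cells. Doses span 1 μM to 0.01 nM in half-log steps, in duplicate. Percent remaining is calculated against DMSO controls after subtracting untagged A375 background, and curve fitting yields DC50 and observed Dmax.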

Another assay has as its target T2, BRAF D594G (Homo sapiens, UniProt P15056, D594G).
T2 construct: Horizon Discovery (HCT-116 BRAF−/− cells); host or cells: HCT-116 BRAF−/− cells, clone 63, lentiviral transduction
Kind of assay: BRAF HiBiT degradation assay, C-terminal HiBiT-tagged BRAF D594G overexpressed in HCT-116 BRAF−/− cells (clone 63), Nano-Glo HiBiT Lytic assay. Put shortly:
(§1)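 First, the stable HiBiT-tagged cells were plated and incubated for 24 h. Next, compound was added in duplicate as an 11-point series with a 1 μM top concentration. Lytic detection followed, with DMSO-treated parental cells used for background. Finally, DC50 and Obs. Dmax relative to DMSO were derived from the % protein remaining curves.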
(HiBiT is a short tag that completes a luciferase, so light tracks the accessible tagged protein.)

A further assay deals with T3, BRAF G466V (Homo sapiens, UniProt P15056, G466V).
T3 construct: Horizon Discovery (HCT-116 BRAF−/− cells); host or cells: HCT-116 BRAF−/− cells, clone 8, lentiviral transduction
T3 sequence (P15056 whole entry G466V): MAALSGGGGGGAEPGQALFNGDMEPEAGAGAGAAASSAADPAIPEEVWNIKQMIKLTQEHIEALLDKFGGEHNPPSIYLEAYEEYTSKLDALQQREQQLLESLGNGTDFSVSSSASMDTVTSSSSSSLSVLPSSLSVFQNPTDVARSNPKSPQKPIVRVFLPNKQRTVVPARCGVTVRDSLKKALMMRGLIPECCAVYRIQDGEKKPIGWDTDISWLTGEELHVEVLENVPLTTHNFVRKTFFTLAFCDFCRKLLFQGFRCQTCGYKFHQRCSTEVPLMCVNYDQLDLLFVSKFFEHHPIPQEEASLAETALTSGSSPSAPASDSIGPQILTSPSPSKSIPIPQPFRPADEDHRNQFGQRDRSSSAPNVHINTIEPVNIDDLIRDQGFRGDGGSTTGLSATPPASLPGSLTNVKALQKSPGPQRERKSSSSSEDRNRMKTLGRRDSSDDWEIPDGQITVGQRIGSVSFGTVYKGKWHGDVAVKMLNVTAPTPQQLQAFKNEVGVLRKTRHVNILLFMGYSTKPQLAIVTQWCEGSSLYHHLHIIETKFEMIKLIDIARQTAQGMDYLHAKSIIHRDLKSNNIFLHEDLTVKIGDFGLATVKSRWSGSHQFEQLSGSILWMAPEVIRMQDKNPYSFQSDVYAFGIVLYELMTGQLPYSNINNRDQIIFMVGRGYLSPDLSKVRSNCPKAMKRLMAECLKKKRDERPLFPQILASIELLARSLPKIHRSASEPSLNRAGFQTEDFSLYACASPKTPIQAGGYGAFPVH
Kind of assay: BRAF HiBiT degradation assay, C-terminal HiBiT-tagged BRAF G466V overexpressed in HCT-116 BRAF−/− cells (clone 8), Nano-Glo HiBiT Lytic assay. In short, it runs like this:
as §1

Another assay addresses T4, BRAF G469A (Homo sapiens, UniProt P15056, G469A).
T4 construct: Horizon Discovery (HCT-116 BRAF−/− cells); host or cells: HCT-116 BRAF−/− cells, clone 34, lentiviral transduction
Kind of assay: BRAF HiBiT degradation assay, C-terminal HiBiT-tagged BRAF G469A overexpressed in HCT-116 BRAF−/− cells (clone 34), Nano-Glo HiBiT Lytic assay. In short, it runs like this: as §1

Where [1] appears, read: A375 (BRAF V600E), DC50 at 50%: fitted conc. at Y=50.
Setting [2] is: A375 (BRAF V600E), percentage protein degraded at maximal compound effect relative to DMSO.
Setting [3] is: BRAF D594G, DC50 at 50%: fitted conc. at Y=50.
The mark [4] stands for this setting: HCT-116, BRAF D594G, percentage protein degraded at maximal compound effect relative to DMSO.
The mark [5] stands for this setting: BRAF G466V, DC50 at 50%: fitted conc. at Y=50.
[6] abbreviates: HCT-116, BRAF G466V, percentage protein degraded at maximal compound effect relative to DMSO.
Setting [7] is: Class 2, BRAF G469A, DC50 at 50%: fitted conc. at Y=50.
[8] abbreviates: HCT-116, Class 2, BRAF G469A, percentage protein degraded at maximal compound effect relative to DMSO.

T2 sequence (P15056 whole entry D594G): as the sequence (P15056 whole entry G466V) above, with V466G, D594G counted along it
T1 sequence (P15056 whole entry V600E, the tested form may be a part): as the sequence (P15056 whole entry G466V) above, with V466G, V600E counted along it
T4 sequence (P15056 whole entry G469A): as the sequence (P15056 whole entry G466V) above, with V466G, G469A counted along it

With `CCCS(=O)(=O)Nc1cccc(-c2nc(C(C)(C)C)sc2-c2ccnc(Nc3cccc(OC4CCN(C(=O)C[C@@H]5CCN(c6ccc(C7CCC(=O)NC7=O)cc6)C5)CC4)c3)n2)c1F` (mixture of isomers) [Compound 92, N-(3-{2-tert-butyl-5-[2-({3-[(1-{2-[(3S)-1-{4-[(3RS)-2,6-dioxopiperidin-3-yl]phenyl}pyrrolidin-3-yl]acetyl}piperidin-4-yl)oxy]phenyl}amino)pyrimidin-4-yl]-1,3-thiazol-4-yl}-2-fluorophenyl)propane-1-sulfonamide], the DC50 at BRAF V600E (setting [1]), at BRAF D594G (setting [3]), on BRAF G466V (setting [5]) and at BRAF G469A (setting [7]) was above 500 nM each time. Further, the Dmax was 30 to 70% at BRAF V600E (setting [2]), below 30% at BRAF D594G (setting [4]), below 30% at BRAF G466V (setting [6]) and below 30% at BRAF G469A (setting [8]).
For `O=C1CCC(c2ccc(N3CCC(CN4CCN(c5ccc(-n6cc(-c7cc(Cl)cc(NS(=O)(=O)N8CCCC8)c7F)c(-c7ccncc7)n6)cc5)CC4)CC3)cc2F)C(=O)N1` (racemic) [Compound 348, Rac-N-{5-chloro-3-[1-(4-{4-[(1-{4-[(3R)-2,6-dioxopiperidin-3-yl]-3-fluorophenyl}piperidin-4-yl)methyl]piperazin-1-yl}phenyl)-3-(pyridin-4-yl)-1H-pyrazol-4-yl]-2-fluorophenyl}pyrrolidine-1-sulfonamide], the DC50 is below 10 nM at BRAF V600E (A375 (BRAF V600E, Class 1), DC50 at 50% degradation); below 10 nM on BRAF D594G (BRAF D594G (Class 3), HCT-116 BRAF−/− cells, DC50 at 50% degradation); below 10 nM at BRAF G466V (BRAF G466V (Class 3), HCT-116 BRAF−/− cells, DC50 at 50% degradation); 10 to 50 nM at BRAF G469A (BRAF G469A (Class 2), HCT-116 BRAF−/− cells, DC50 at 50% degradation). Further, the Dmax at BRAF V600E (A375 (BRAF V600E, Class 1), observed Dmax, % protein degraded relative to DMSO control) is above 70%; at BRAF D594G (BRAF D594G (Class 3), HCT-116 BRAF−/− cells, observed Dmax relative to DMSO control), 30 to 70%; on BRAF G466V (BRAF G466V (Class 3), HCT-116 BRAF−/− cells, observed Dmax relative to DMSO control) it was above 70%; at BRAF G469A (BRAF G469A (Class 2), HCT-116 BRAF−/− cells, observed Dmax relative to DMSO control) it was 30 to 70%.
Turning to `CCCS(=O)(=O)Nc1cccc(-c2cn(-c3ccc(C4CCN(CC5CCN(c6ccc(C7CCC(=O)NC7=O)cc6F)CC5)CC4)cc3)nc2-c2ccncc2)c1F` (racemic) [Compound 22, Rac-N-{3-[1-(4-{1-[(1-{4-[(3R)-2,6-dioxopiperidin-3-yl]-2-fluorophenyl}piperidin-4-yl)methyl]piperidin-4-yl}phenyl)-3-(pyridin-4-yl)-1H-pyrazol-4-yl]-2-fluorophenyl}propane-1-sulfonamide], the DC50 at BRAF V600E (setting [1]) is 10 to 50 nM; at BRAF D594G (setting [3]), above 500 nM; at BRAF G466V (setting [5]), 50 to 500 nM; at BRAF G469A (setting [7]), above 500 nM. Further, the Dmax at BRAF V600E (setting [2]) was above 70%; on BRAF D594G (setting [4]), 30 to 70%; on BRAF G466V (setting [6]) it was 30 to 70%; at BRAF G469A (setting [8]) it was below 30%.
For `CCCS(=O)(=O)Nc1cccc(-c2nc(C3CCN(C(=O)C4CCN(C(=O)C5CCN(c6ccc(C7CCC(=O)NC7=O)cn6)CC5)CC4)CC3)sc2-c2ccnc(NC3CC3)n2)c1F` (racemic) [Compound 198, Rac-N-(3-{5-[2-(cyclopropylamino)pyrimidin-4-yl]-2-{1-[1-(1-{5-[(3R)-2,6-dioxopiperidin-3-yl]pyridin-2-yl}piperidine-4-carbonyl)piperidine-4-carbonyl]piperidin-4-yl}-1,3-thiazol-4-yl}-2-fluorophenyl)propane-1-sulfonamide], the DC50 on BRAF V600E (setting [1]) was below 10 nM; on BRAF D594G (setting [3]), below 10 nM; at BRAF G466V (setting [5]), above 500 nM; at BRAF G469A (setting [7]), above 500 nM. In addition, the Dmax was above 70% on BRAF V600E (setting [2]), 30 to 70% on BRAF D594G (setting [4]), 30 to 70% on BRAF G466V (setting [6]) and 30 to 70% on BRAF G469A (setting [8]).
Take `CCCS(=O)(=O)Nc1cccc(-c2nc(C(C)(C)C)sc2-c2ccnc(Nc3cccc(OC4CCN(C(=O)C5CCN(c6cc(C7CCC(=O)NC7=O)ccn6)CC5)CC4)c3)n2)c1F` (racemic) [Compound 100, Rac-N-[3-(2-tert-butyl-5-{2-[(3-{[1-(1-{4-[(3R)-2,6-dioxopiperidin-3-yl]pyridin-2-yl}piperidine-4-carbonyl)piperidin-4-yl]oxy}phenyl)amino]pyrimidin-4-yl}-1,3-thiazol-4-yl)-2-fluorophenyl]propane-1-sulfonamide]: the DC50 was below 10 nM at BRAF V600E (setting [1]), 50 to 500 nM on BRAF D594G (setting [3]), above 500 nM at BRAF G466V (setting [5]) and above 500 nM at BRAF G469A (setting [7]). In addition, the Dmax on BRAF V600E (setting [2]) was above 70%; on BRAF D594G (setting [4]), 30 to 70%; on BRAF G466V (setting [6]), below 30%; on BRAF G469A (setting [8]) it was below 30%.

By DC50 is commonly meant the midpoint of the concentration-degradation curve. A higher DC50 goes with degradation only at high concentration. The Dmax is the greatest extent of degradation seen. Low readings indicate a partial loss of target, high ones a fuller loss of target.
